Among the data in US20230002359A1, “PESTICIDALLY ACTIVE FUSED BICYCLIC HETEROAROMATIC COMPOUNDS” (priority 2019, published 2023) are percent control (mortality, anti-feedant effect or growth inhibition) and percent control (mortality or growth inhibition) values, retold here.

What all share (format): in vivo
Test [1] deals with Chilo suppressalis (Striped Rice Stemborer). Briefly: Example B3: Chilo suppressalis (striped rice stemborer), artificial diet, L2 larvae. To be noted: 144 h, application rate of 200 ppm, 6 days after infestation, L2 larvae, read-out: control in at least one of the three categories (mortality, anti-feedant effect, or growth inhibition). How it is done:
24-well microtiter plates with artificial diet were treated with aqueous test solutions prepared from 10′000 ppm DMSO stock solutions by pipetting. After drying, the plates were infested with L2 larvae (6-8 per well). The samples were assessed for mortality, anti-feeding effect, and growth inhibition in comparison to untreated samples 6 days after infestation. Control of Chilo suppressalis by a test sample is given when at least one of the categories mortality, anti-feedant effect, and growth inhibition is higher than the untreated sample.

Test [2] relates to Diabrotica Balteata (Corn Root Worm). The test is described as follows: Example B1: Diabrotica balteata (corn root worm), maize sprouts sprayed, L2 larvae. To be noted: 96 h, application rate of 200 ppm, 4 days after infestation, L2 larvae, read-out: control in at least one of the two categories (mortality or growth inhibition). How it is done: Maize sprouts placed onto an agar layer in 24-well microtiter plates were treated with aqueous test solutions prepared from 10′000 ppm DMSO stock solutions by spraying. After drying, the plates were infested with L2 larvae (6 to 10 per well). The samples were assessed for mortality and growth inhibition in comparison to untreated samples 4 days after infestation.

In test [3] the test system is Plutella xylostella (Diamond Back Moth). Briefly: Example B4: Plutella xylostella (diamond back moth), artificial diet, eggs, 24-well. To be noted: 192 h, application rate of 200 ppm, 8 days after infestation, eggs, read-out: control in at least one of the two categories (mortality or growth inhibition). The method, then:
24-well microtiter plates with artificial diet were treated with aqueous test solutions prepared from 10′000 ppm DMSO stock solutions by pipetting. After drying, Plutella eggs were pipetted through a plastic stencil onto a gel blotting paper and the plate was closed with it. The samples were assessed for mortality and growth inhibition in comparison to untreated samples 8 days after infestation.

Bounds are passed on as bounds.

On to `CC(c1nccnc1-c1ccc(C#N)cn1)N(CC1CC1)c1ncnc2c(Cl)cc(C(F)(F)F)cc12` (centres unmarked) [P.72, 6-[3-[1-[[8-chloro-6-(trifluoromethyl)quinazolin-4-yl]-(cyclopropylmethyl)amino]ethyl]pyrazin-2-yl]pyridine-3-carbonitrile], for which the percent control (mortality, anti-feedant effect or growth inhibition) at 200 ppm in test [1] is at least 80%. In addition, the percent control (mortality or growth inhibition) at 200 ppm in test [2] and in test [3] was at least 80% each time.

As for `CC(c1nccnc1-c1ccc(C#N)cn1)N(CC1CC1)c1ncnc2c(Br)cc(C(F)(F)F)cc12` (centres unmarked) [P.73, 6-[3-[1-[[8-bromo-6-(trifluoromethyl)quinazolin-4-yl]-(cyclopropylmethyl)amino]ethyl]pyrazin-2-yl]pyridine-3-carbonitrile], in test [1], the percent control (mortality, anti-feedant effect or growth inhibition) at 200 ppm was at least 80%. Moreover, the percent control (mortality or growth inhibition) at 200 ppm in test [2] and in test [3] was at least 80% each time.

Turning to `CC(c1nccnc1-n1nccn1)N(CC1CC1)c1ncnc2c(Cl)cc(C(F)(F)F)cc12` (centres unmarked) [P.76, 8-chloro-N-(cyclopropylmethyl)-N-[1-[3-(triazol-2-yl)pyrazin-2-yl]ethyl]-6-(trifluoromethyl)quinazolin-4-amine], the percent control (mortality, anti-feedant effect or growth inhibition) at 200 ppm in test [1] is at least 80%. For the same compound, the percent control (mortality or growth inhibition) at 200 ppm in test [2] and in test [3] was at least 80% each time.

Consider `CC(c1nccnc1-n1nccn1)N(CC1CC1)c1ncnc2c(C(F)(F)F)cc(Cl)cc12` (centres unmarked) [P.77, 6-chloro-N-(cyclopropylmethyl)-N-[1-[3-(triazol-2-yl)pyrazin-2-yl]ethyl]-8-(trifluoromethyl)quinazolin-4-amine], for which the percent control (mortality, anti-feedant effect or growth inhibition) at 200 ppm in test [1] is at least 80%. For the same compound, the percent control (mortality or growth inhibition) at 200 ppm in test [2] and in test [3] was at least 80% throughout.

On to `CC(c1nccnc1-c1ncccn1)N(CC1CC1)c1ncnc2c(C(F)(F)F)cc(Br)cc12` (centres unmarked) [P.80, 6-bromo-N-(cyclopropylmethyl)-N-[1-(3-pyrimidin-2-ylpyrazin-2-yl)ethyl]-8-(trifluoromethyl)quinazolin-4-amine], for which, in test [1], the percent control (mortality, anti-feedant effect or growth inhibition) at 200 ppm was at least 80%. Also, the percent control (mortality or growth inhibition) at 200 ppm in test [2] and in test [3] was at least 80% throughout.

For `CC(c1nccnc1-c1ncccn1)N(CC1CC1)c1ncnc2c(Cl)cc(C(F)(F)F)cc12` (centres unmarked) [P.81, 8-chloro-N-(cyclopropylmethyl)-N-[1-(3-pyrimidin-2-ylpyrazin-2-yl)ethyl]-6-(trifluoromethyl)quinazolin-4-amine], in test [1], the percent control (mortality, anti-feedant effect or growth inhibition) at 200 ppm is at least 80%. Further, the percent control (mortality or growth inhibition) at 200 ppm in test [2] and in test [3] was at least 80% each time.

As for `CC(Nc1ccnc2c(C(F)(F)F)cc(C(F)(F)F)cc12)c1nccnc1-c1ncccn1` (centres unmarked) [P.85, N-[1-(3-pyrimidin-2-ylpyrazin-2-yl)ethyl]-6,8-bis(trifluoromethyl)quino-lin-4-amine], the percent control (mortality, anti-feedant effect or growth inhibition) at 200 ppm in test [1] was at least 80%. Moreover, the percent control (mortality or growth inhibition) at 200 ppm in test [2] and in test [3] was at least 80% throughout.

For `CC(Nc1ncnc2c(C(F)(F)F)cc(C(F)(F)F)cc12)c1ncnn1-c1ncc(Br)cn1` (centres unmarked) [P.92, N-[1-[2-(5-bromopyrimidin-2-yl)-1,2,4-triazol-3-yl]ethyl]-6,8-bis(trifluoromethyl)quina-zolin-4-amine], the percent control (mortality, anti-feedant effect or growth inhibition) at 200 ppm in test [1] was at least 80%. In addition, the percent control (mortality or growth inhibition) at 200 ppm in test [2] and in test [3] was at least 80% each time.

Take `CC(Nc1ncnc2c(C(F)(F)F)cc(C(F)(F)F)cc12)c1ncnn1-c1ccc(Br)cn1` (centres unmarked) [P.268, N-[1-[2-(5-bromo-2-pyridyl)-1,2,4-triazol-3-yl]ethyl]-6,8-bis(trifluoromethyl)quina-zolin-4-amine]: the percent control (mortality or growth inhibition) at 200 ppm in test [2] and in test [3] was at least 80% each time.
